How the values were obtained:
[1] = system: NKM-1 (Acute Myeloid Leukemia); test: Bliss excess, mean over the matrix (fraction); higher = more synergy
Outline: (§1)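 Bliss excess equals the observed combination effect minus the expected value EA + EB − EA·EB, where EA and EB are the effects of each agent alone. Combination Emax is the second-highest inhibition within the matrix. Inhibition was scaled from CellTiter-Glo 2.0 luminescence, with 0 set by vehicle wells and 1 by blank wells, after 72 hours of two-drug dosing of cells plated in 1536-well plates.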

[2] = system: HCC-44 (Lung Adenocarcinoma); test: as above
Outline: as §1

[3] = system: SW684 (Other Solid Carcinomas); test: as above
Outline: as §1

[4] = system: OV-90 (Ovarian Carcinoma); test: as above
Outline: as §1

KYM-1 (Rhabdomyosarcoma) [5] = test: as above
Outline: as §1

[6] = system: FLO-1 (Esophageal Adenocarcinoma); test: as above
Outline: as §1

[7] = system: COLO-684 (Endometrial Carcinoma); test: as above
Outline: as §1

[8] = system: CML-T1 (Chronic Myelogenous Leukemia); test: as above
Outline: as §1

[9] = system: LOUCY (T-Lymphoblastic Leukemia); test: as above
Outline: as §1

CHL-1 (Melanoma) [10] = test: as above
Outline: as §1

[11] = system: NCI-H1755 (Lung Adenocarcinoma); test: as above
Outline: as §1

[12] = system: NCI-H810 (Non-Small Cell Lung Carcinoma); test: as above
Outline: as §1

[13] = system: PANC-02-03 (Pancreatic Carcinoma); test: as above
Outline: as §1

[14] = system: RMG-I (Ovarian Carcinoma); test: as above
Outline: as §1

[15] = system: LAMA-84 (Chronic Myelogenous Leukemia); test: as above
Outline: as §1

[16] = system: PC-14 (Lung Adenocarcinoma); test: as above
Outline: as §1

[17] = system: KYSE-70 (Esophageal Squamous Cell Carcinoma); test: as above
Outline: as §1

[18] = system: Becker (Low Grade Glioma); test: as above
Outline: as §1

[19] = system: EB-3 (Burkitt's Lymphoma); test: as above
Outline: as §1

[20] = system: SK-MM-2 (Plasma Cell Myeloma); test: as above
Outline: as §1

[21] = system: NKM-1 (Acute Myeloid Leukemia); test: combination Emax (second highest fraction inhibited in the dose matrix, 72 h); higher = more inhibition; extreme values may be limits of the assay
Outline: as §1

[22] = system: HCC-44 (Lung Adenocarcinoma); test: as above
Outline: as §1

[23] = system: SW684 (Other Solid Carcinomas); test: as above
Outline: as §1

[24] = system: OV-90 (Ovarian Carcinoma); test: as above
Outline: as §1

KYM-1 (Rhabdomyosarcoma) [25] = test: as above
Outline: as §1

[26] = system: FLO-1 (Esophageal Adenocarcinoma); test: as above
Outline: as §1

[27] = system: COLO-684 (Endometrial Carcinoma); test: as above
Outline: as §1

[28] = system: CML-T1 (Chronic Myelogenous Leukemia); test: as above
Outline: as §1

[29] = system: LOUCY (T-Lymphoblastic Leukemia); test: as above
Outline: as §1

CHL-1 (Melanoma) [30] = test: as above
Outline: as §1

[31] = system: NCI-H1755 (Lung Adenocarcinoma); test: as above
Outline: as §1

[32] = system: NCI-H810 (Non-Small Cell Lung Carcinoma); test: as above
Outline: as §1

[33] = system: PANC-02-03 (Pancreatic Carcinoma); test: as above
Outline: as §1

[34] = system: RMG-I (Ovarian Carcinoma); test: as above
Outline: as §1

[35] = system: LAMA-84 (Chronic Myelogenous Leukemia); test: as above
Outline: as §1

[36] = system: PC-14 (Lung Adenocarcinoma); test: as above
Outline: as §1

[37] = system: KYSE-70 (Esophageal Squamous Cell Carcinoma); test: as above
Outline: as §1

[38] = system: Becker (Low Grade Glioma); test: as above
Outline: as §1

[39] = system: EB-3 (Burkitt's Lymphoma); test: as above
Outline: as §1

[40] = system: SK-MM-2 (Plasma Cell Myeloma); test: as above
Outline: as §1

SMILES	Bliss excess [1]	Bliss excess [2]	Bliss excess [3]	Bliss excess [4]	Bliss excess (KYM-1 (Rhabdomyosarcoma) [5])	Bliss excess [6]	Bliss excess [7]	Bliss excess [8]	Bliss excess [9]	Bliss excess (CHL-1 (Melanoma) [10])	Bliss excess [11]	Bliss excess [12]	Bliss excess [13]	Bliss excess [14]	Bliss excess [15]	Bliss excess [16]	Bliss excess [17]	Bliss excess [18]	Bliss excess [19]	Bliss excess [20]	combination Emax [21]	combination Emax [22]	combination Emax [23]	combination Emax [24]	combination Emax (KYM-1 (Rhabdomyosarcoma) [25])	combination Emax [26]	combination Emax [27]	combination Emax [28]	combination Emax [29]	combination Emax (CHL-1 (Melanoma) [30])	combination Emax [31]	combination Emax [32]	combination Emax [33]	combination Emax [34]	combination Emax [35]	combination Emax [36]	combination Emax [37]	combination Emax [38]	combination Emax [39]	combination Emax [40]
C=CCn1c(=O)c2cnc(Nc3ccc(N4CCN(C)CC4)cc3)nc2n1-c1cccc(C(C)(C)O)n1 [AZD1775] + CCc1c2c(nc3ccc(O)cc13)-c1cc3c(c(=O)n1C2)COC(=O)[C@]3(O)CC [SN-38] (first compound max 1 µM, partner max 0.3 µM)	0.0008	0.0458	0.0144	-0.101	-0.0535	0.0261	-0.0122	-0.002	0.0229	0.0518	0.0139	-0.0454	0.0042	-0.0848	-0.0202	-0.0001	-0.0358	-0.0094	-0.0467	0.0271	0.997	0.935	0.493	0.537	0.958	0.897	0.906	1	0.995	0.833	0.827	0.634	0.706	0.524	0.993	0.929	0.599	0.903	0.884	0.794
C=CCn1c(=O)c2cnc(Nc3ccc(N4CCN(C)CC4)cc3)nc2n1-c1cccc(C(C)(C)O)n1 [AZD1775] + Nc1ccn([C@@H]2O[C@H](CO)[C@@H](O)C2(F)F)c(=O)n1 [Gemcitabine] (first compound max 1 µM, partner max 0.3 µM)	0.0002	0.0711	-0.0333	-0.0166	0.0009	0.0955	-0.0674	0.0273	0.108	0.0089	0.0304	-0.0695	0.0035	-0.0608	0.0286	0.0198	-0.002	0.0271	0.0105	0.0664	1	0.916	0.382	0.555	0.999	0.904	0.718	0.998	0.995	0.725	0.786	0.828	0.588	0.401	0.963	0.917	0.565	0.584	0.811	0.623
CN(CCO)CC[C@H](CSc1ccccc1)Nc1ccc(S(=O)(=O)NC(=O)c2ccc(N3CCC([C@@H](O)c4ccccc4-c4ccc(Cl)cc4)CC3)cc2)cc1S(=O)(=O)C(F)(F)F [AZD4320] + CC(=O)O[C@H]1C(=O)[C@@]2(C)[C@H]([C@H](OC(=O)c3ccccc3)[C@]3(O)C[C@H](OC(=O)[C@H](O)[C@@H](NC(=O)c4ccccc4)c4ccccc4)C(C)=C1C3(C)C)[C@]1(OC(C)=O)CO[C@@H]1C[C@@H]2O [Paclitaxel] (first compound max 1 µM, 7x7, partner max 3 µM)	0.0078	-0.0294	0.164	0.0935	0.017	0.0005	0.0345	-0.0236	0.0229	0.0578	0.0211	0.237	0.0109	0.133	0.0001	0.0125	0.0722	0.0744	-0.0733	0.0531	1	0.876	0.952	0.932	1	0.98	0.663	1	1	1	0.9	0.992	0.597	0.94	1	0.996	0.597	1	0.754	1
CN(CCO)CC[C@H](CSc1ccccc1)Nc1ccc(S(=O)(=O)NC(=O)c2ccc(N3CCC([C@@H](O)c4ccccc4-c4ccc(Cl)cc4)CC3)cc2)cc1S(=O)(=O)C(F)(F)F [AZD4320] + CS(=O)(=O)CCNCc1ccc(-c2ccc3ncnc(Nc4ccc(OCc5cccc(F)c5)c(Cl)c4)c3c2)o1 [Lapatinib] (first compound max 1 µM, 7x7, partner max 10 µM)	0.0418	-0.0303	-0.0169	-0.02	0.021	0.0298	-0.0766	-0.0077	0.0586	0.0412	0.0015	-0.0665	0.0082	0.0763	0.0411	0.0043	-0.0022	0.0497	-0.0721	0.0729	1	0.472	0.823	0.849	0.395	0.842	0.34	1	1	0.718	0.702	0.518	0.875	0.972	0.989	0.964	0.177	0.912	0.605	1
CN(CCO)CC[C@H](CSc1ccccc1)Nc1ccc(S(=O)(=O)NC(=O)c2ccc(N3CCC([C@@H](O)c4ccccc4-c4ccc(Cl)cc4)CC3)cc2)cc1S(=O)(=O)C(F)(F)F [AZD4320] + Nc1ccn([C@@H]2O[C@H](CO)[C@@H](O)C2(F)F)c(=O)n1 [Gemcitabine] (first compound max 1 µM, 7x7, partner max 0.3 µM)	0.0029	0.0237	-0.0442	0.0718	0.001	0.0443	-0.0157	-0.0189	0.0431	0.0768	-0.0211	-0.0458	-0.071	0.0063	0.0346	0.0292	-0.0342	0.0818	0.0031	0.0061	1	0.641	0.524	0.88	1	0.776	0.429	1	1	0.686	0.463	0.593	0.482	0.866	0.979	0.699	0.159	0.8	0.469	1
C[C@@H]1COCCN1c1cc(C2([S@](C)(=N)=O)CC2)nc(-c2ccnc3[nH]ccc23)n1 [AZD6738] + C1CC(C1)(C(=O)[O-])C(=O)[O-].N.N.[Pt+2] [Carboplatin] (first compound max 10 µM, 7x7, partner max 10 µM)	-0.0102	-0.0585	-0.0968	-0.0638	0.0183	-0.0416	-0.0356	-0.031	0.0054	-0.0178	-0.0571	-0.116	-0.0433	-0.0502	-0.0368	-0.0164	-0.0571	-0.0224	-0.0876	-0.0045	–	0.288	0.342	0.345	0.904	0.619	0.756	0.976	0.972	0.798	0.807	0.458	0.433	0.337	0.92	0.807	0.266	0.648	0.751	0.319

— the supplement of paper PMC11061612
